From the supplement of paper PMC10307832

Assays:
Assay in all cases: relative viability (nuclei count vs DMSO), 5 days (fraction); higher = more cells survive
CAL-12T = tested on: CAL-12T
Outline: (§1)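 A single step with final 0.05% Triton X-100, 1% formaldehyde and 1 ug/ml Hoechst fixed the cells and stained nuclei 5 days after treatment. Lung cancer cell lines in 1536-well plates had been treated by pin tool the day after seeding with one drug alone or a fixed anchor-drug dose plus five library-drug doses (not always all listed) in √10 steps, and nuclei were counted on 4× images. Relative viability is the ratio of nuclei in treated wells to nuclei in vehicle wells, taken as the median of duplicate plates.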

SW 1573 = tested on: SW 1573
Outline: as §1

HCC-366 = tested on: HCC-366
Outline: as §1

NCI-H1755 = tested on: NCI-H1755
Outline: as §1

NCI-H1915 = tested on: NCI-H1915
Outline: as §1

EMC-BAC-2 = tested on: EMC-BAC-2
Outline: as §1

NCI-H522 = tested on: NCI-H522
Outline: as §1

NCI-H1395 = tested on: NCI-H1395
Outline: as §1

NCI-H727 = tested on: NCI-H727
Outline: as §1

COR-L 105 = tested on: COR-L 105
Outline: as §1

HOP-62 = tested on: HOP-62
Outline: as §1

NCI-H23 = tested on: NCI-H23
Outline: as §1

HARA = tested on: HARA
Outline: as §1

NCI-H2228 = tested on: NCI-H2228
Outline: as §1

A-427 = tested on: A-427
Outline: as §1

NCI-H2009 = tested on: NCI-H2009
Outline: as §1

LCLC-103H = tested on: LCLC-103H
Outline: as §1

HCC-827 = tested on: HCC-827
Outline: as §1

NCI-H1437 = tested on: NCI-H1437
Outline: as §1

SK-LU-1 = tested on: SK-LU-1
Outline: as §1

NCI-H460 = tested on: NCI-H460
Outline: as §1

`COc1nc(C)cnc1NS(=O)(=O)c1cccnc1-c1ccc(-c2nnco2)cc1` [Zibotentan] + Cc1cc(Nc2cc(N3CCN(C)CC3)nc(Sc3ccc(NC(=O)C4CC4)cc3)n2)n[nH]1 [Tozasertib] (partner 0.1 µM) was tested, and the relative viability (CAL-12T; first compound 0.08 µM) was 0.268, the relative viability (CAL-12T; first compound 0.253 µM) was 0.289 and the relative viability (CAL-12T; first compound 0.8 µM) was 0.351. The relative viability (CAL-12T; first compound 2.53 µM) was 0.31, the relative viability (SW 1573; first compound 0.08 µM) was 0.229 and the relative viability (SW 1573; first compound 0.8 µM) was 0.257. For the same molecule, the relative viability (SW 1573; first compound 2.53 µM) was 0.221, the relative viability (HCC-366; first compound 0.08 µM) was 0.132 and the relative viability (HCC-366; first compound 0.253 µM) was 0.0914. The relative viability (HCC-366; first compound 0.8 µM) was 0.0627, the relative viability (HCC-366; first compound 2.53 µM) was 0.156 and the relative viability (NCI-H1755; first compound 0.08 µM) was 0.475. For the same molecule, the relative viability (NCI-H1755; first compound 0.253 µM) was 0.58, the relative viability (NCI-H1755; first compound 0.8 µM) was 0.602 and the relative viability (NCI-H1755; first compound 2.53 µM) was 0.657. The relative viability (NCI-H1915; first compound 0.08 µM) was 0.453, the relative viability (NCI-H1915; first compound 0.253 µM) was 0.409 and the relative viability (NCI-H1915; first compound 0.8 µM) was 0.428. The relative viability (NCI-H1915; first compound 2.53 µM) was 0.417, the relative viability (EMC-BAC-2; first compound 0.08 µM) was 0.286 and the relative viability (EMC-BAC-2; first compound 0.8 µM) was 0.293. It also gave a relative viability (EMC-BAC-2; first compound 2.53 µM) of 0.274, a relative viability (NCI-H522; first compound 0.08 µM) of 0.573 and a relative viability (NCI-H522; first compound 0.253 µM) of 0.606. The relative viability (NCI-H522; first compound 0.8 µM) was 0.599, the relative viability (NCI-H522; first compound 2.53 µM) was 0.568 and the relative viability (NCI-H1395; first compound 0.08 µM) was 0.74. It also gave a relative viability (NCI-H1395; first compound 0.253 µM) of 0.762, a relative viability (NCI-H1395; first compound 0.8 µM) of 0.733 and a relative viability (NCI-H1395; first compound 2.53 µM) of 0.794. It also gave a relative viability (NCI-H727; first compound 0.08 µM) of 0.692, a relative viability (NCI-H727; first compound 0.253 µM) of 0.624 and a relative viability (NCI-H727; first compound 0.8 µM) of 0.629. It also gave a relative viability (NCI-H727; first compound 2.53 µM) of 0.648, a relative viability (COR-L 105; first compound 0.08 µM) of 0.309 and a relative viability (COR-L 105; first compound 0.253 µM) of 0.344. The relative viability (COR-L 105; first compound 0.8 µM) was 0.371, the relative viability (COR-L 105; first compound 2.53 µM) was 0.362 and the relative viability (HOP-62; first compound 0.08 µM) was 0.333. For the same molecule, the relative viability (HOP-62; first compound 0.253 µM) was 0.371, the relative viability (HOP-62; first compound 0.8 µM) was 0.428 and the relative viability (HOP-62; first compound 2.53 µM) was 0.359. For the same molecule, the relative viability (NCI-H23; first compound 0.08 µM) was 0.284, the relative viability (NCI-H23; first compound 0.253 µM) was 0.331 and the relative viability (NCI-H23; first compound 0.8 µM) was 0.314. The relative viability (NCI-H23; first compound 2.53 µM) was 0.413, the relative viability (HARA; first compound 0.08 µM) was 0.0875 and the relative viability (HARA; first compound 0.253 µM) was 0.102. For the same molecule, the relative viability (HARA; first compound 0.8 µM) was 0.13, the relative viability (HARA; first compound 2.53 µM) was 0.28 and the relative viability (NCI-H2228; first compound 0.08 µM) was 0.266. It also gave a relative viability (NCI-H2228; first compound 0.253 µM) of 0.239, a relative viability (NCI-H2228; first compound 0.8 µM) of 0.212 and a relative viability (NCI-H2228; first compound 2.53 µM) of 0.258. For the same molecule, the relative viability (A-427; first compound 0.08 µM) was 0.232, the relative viability (A-427; first compound 0.253 µM) was 0.205 and the relative viability (A-427; first compound 0.8 µM) was 0.25. The relative viability (A-427; first compound 2.53 µM) was 0.258, the relative viability (NCI-H2009; first compound 0.08 µM) was 0.769 and the relative viability (NCI-H2009; first compound 0.253 µM) was 0.72. The relative viability (NCI-H2009; first compound 0.8 µM) was 0.778, the relative viability (NCI-H2009; first compound 2.53 µM) was 0.756 and the relative viability (LCLC-103H; first compound 0.08 µM) was 0.451. For the same molecule, the relative viability (LCLC-103H; first compound 0.253 µM) was 0.509, the relative viability (LCLC-103H; first compound 0.8 µM) was 0.412 and the relative viability (LCLC-103H; first compound 2.53 µM) was 0.478. The relative viability (HCC-827; first compound 0.08 µM) was 0.438, the relative viability (HCC-827; first compound 0.253 µM) was 0.411 and the relative viability (HCC-827; first compound 0.8 µM) was 0.409. It also gave a relative viability (HCC-827; first compound 2.53 µM) of 0.371, a relative viability (NCI-H1437; first compound 0.08 µM) of 0.421 and a relative viability (NCI-H1437; first compound 0.253 µM) of 0.378. For the same molecule, the relative viability (NCI-H1437; first compound 0.8 µM) was 0.38, the relative viability (NCI-H1437; first compound 2.53 µM) was 0.448 and the relative viability (SK-LU-1; first compound 0.08 µM) was 0.327. For the same molecule, the relative viability (SK-LU-1; first compound 0.253 µM) was 0.283, the relative viability (SK-LU-1; first compound 0.8 µM) was 0.336 and the relative viability (SK-LU-1; first compound 2.53 µM) was 0.424. For the same molecule, the relative viability (NCI-H460; first compound 0.08 µM) was 0.625, the relative viability (NCI-H460; first compound 0.253 µM) was 0.158 and the relative viability (NCI-H460; first compound 0.8 µM) was 0.106. The relative viability (NCI-H460; first compound 2.53 µM) was 0.385.
